Holding throughout (assay type): cell-based
Assay [1] concerns HSV-1 (herpes simplex virus type 1, strain Schooler). The assay can be described thus: HSV-1 antiviral plaque reduction assay in WI-38 cell culture. To be noted: Human alphaherpesvirus 1, 96 h; HSV-1 strain Schooler; WI-38 monolayers; at least 50% plaque reduction vs virus controls; 4 days at 37° C.; read-out: ID50 HSV-1. How it is done:
(§1) Assays were performed in cell culture systems to determine the concentrations of compounds that are effective in preventing several kinds of viral infections. Abbreviations:
(§2) HSV-1 (herpes simplex virus type 1, strain Schooler), HSV-2 (herpes simplex virus type 2, strain 186), VZV (varicella zoster virus, strain ELLEN), HCMC (human cytomegalovirus, strain AD 169). Cell Culture Assays:
(§3) HSV-1, HSV-2, HCMV and VZV antiviral assays: Virus was adsorbed to WI-38 cell culture monolayers in 5 well culture plates (Costar, Cambridge, Mass.) for 1 hour prior to addition of maintenance medium containing duplicate dilutions of the test compound. Inhibition of plaque development was evaluated on fixed and stained monolayers after 4 days incubation at 37° C. for HSV-1 and HSV-2, and after 5-7 days incubation at 37° C. for HCMV and VZV. ID50 values were determined from the drug concentration which conferred at least a 50% plaque reduction compared to virus controls.
On the technique in general: Plaques are areas of infected cells; plaque reduction assays count them against a control.

For assay [2], the system named is HSV-2 (herpes simplex virus type 2, strain 186). The assay is described as follows: HSV-2 antiviral plaque reduction assay in WI-38 cell culture. To be noted: Human alphaherpesvirus 2, 96 h; HSV-2 strain 186; WI-38 monolayers; at least 50% plaque reduction vs virus controls; 4 days at 37° C.; read-out: ID50 HSV-2. How it is done: as §1, §2, §3
The test system of assay [3] is VZV (varicella zoster virus, strain ELLEN). The assay is described as follows: VZV antiviral plaque reduction assay in WI-38 cell culture. To be noted: Human alphaherpesvirus 3, WI-38 monolayers, at least 50% plaque reduction vs virus controls, 5-7 days at 37° C., read-out: ID50 VZV. How it is done: as §1, §2, §3
Assay [4] concerns HCMV (human cytomegalovirus, strain AD 169). The assay can be described thus: HCMV antiviral plaque reduction assay in WI-38 cell culture. To be noted: Human betaherpesvirus 5; HCMV strain AD 169; WI-38 monolayers; at least 50% plaque reduction vs virus controls; 5-7 days at 37° C.; read-out: ID50 HCMV. The procedure: as §1, §2, §3

Take `Nc1ncnc2c1ncn2[C@@H]1CO[C@H](CO)[C@@H](O)C1` [Example 2, [2R-(2α, 3β, 5α)]-5-(6-Amino-9H-purin-9yl)tetrahydro-3-hydroxy-2H-pyran-2-methanol]: the IC50 is 8 to 19 µM in assay [1], 8 to 19 µM in assay [2], 38 µM in assay [3] and 4 to 38 µM in assay [4].

In the case of `O=c1[nH]c(=O)n([C@@H]2CO[C@H](CO)[C@@H](O)C2)cc1/C=C/Br` [Example 6], the IC50 is 29 to 72 µM in assay [1], over 288 µM in assay [2], 5.7 to 14.5 µM in assay [3] and over 288 µM in assay [4].

For the molecule `Cc1cn([C@@H]2CO[C@H](CO)[C@@H](O)C2)c(=O)[nH]c1=O` [Example 5, [3S-(3α, 5β, 6α)]-5-Methyl-1-[tetrahydro-5-hydroxy-6-(hydroxymethyl)-2H-pyran-3-yl]-2,4 (1H, 3H)-pyrimidinedione], the IC50 in assay [1] is 390 µM; in assay [2] it was over 390 µM; in assay [3], 39 to 390 µM; in assay [4] it was at least 390 µM.

On to `Nc1ccn([C@@H]2CO[C@H](CO)[C@@H](O)C2)c(=O)n1` [Example 3, [3S-(3α, 5β, 6α)]-4-Amino-1-[tetrahydro-5-hydroxy-6-(hydroxymethyl) -2H-pyran-3-yl]-2-(1H) -pyrimidinone], for which the IC50 in assay [1] was 0.4 to 0.8 µM; in assay [2], 0.4 to 0.8 µM; in assay [3], 4 to 8 µM; in assay [4] it was 2 µM.

Consider `O=c1[nH]c(=O)n([C@@H]2CO[C@H](CO)[C@@H](O)C2)cc1I` [Example 4, [3S-(3α, 5β, 6α)]-5-Iodo-1-[tetrahydro-5-hydroxy-6-(hydroxymethyl) -2H-pyran-3-yl]-2,4 (1H, 3H) -pyrimidinedione], for which the IC50 in assay [1] is 0.3 to 1.4 µM; in assay [2], 3 to 5.4 µM; in assay [3], 68 to 272 µM; in assay [4], over 272 µM.

As for `Nc1nc2c(ncn2[C@@H]2CO[C@H](CO)[C@@H](O)C2)c(=O)[nH]1` [Example 1, [3S-(3α, 5β, 6α)]-2-Amino-1,9-dihydro-9-[tetrahydro-5-hydroxy-6-(hydroxymethyl)-2H-pyran-3-yl]-6H-purin-6-one], the IC50 in assay [1] was 18 µM; in assay [2], 18 µM; in assay [3] it was 18 to 36 µM; in assay [4], 18 to 36 µM.

Values taken from patent US5414000A, “Antiviral pyrinyl substituted tetrahydropyrans” (Bristol-Myers Squibb Co., priority 1994, dated 1995).
